In patent US9890152B2 (Genentech, Inc., priority 2012, dated 2018):

What follows are compounds tested against T1, EGFR del746-750 T790M (Homo sapiens, UniProt P00533, DEL746-750/T790M) (assay: EGFR del746-750 T790M biochemical assay (Caliper mobility shift)). Details: 5 μM ATP, 30 min, room temperature; apparent Ki (Morrison) converted by Cheng-Prusoff, Km of ATP 2.1 μM; read-out: EGFR(T790M/d746-750) Ki.
T1 construct: purchased Carna Biosciences 08-528
T1 sequence (P00533 with tags, fused parts or gaps DEL746-750/T790M limits assumed): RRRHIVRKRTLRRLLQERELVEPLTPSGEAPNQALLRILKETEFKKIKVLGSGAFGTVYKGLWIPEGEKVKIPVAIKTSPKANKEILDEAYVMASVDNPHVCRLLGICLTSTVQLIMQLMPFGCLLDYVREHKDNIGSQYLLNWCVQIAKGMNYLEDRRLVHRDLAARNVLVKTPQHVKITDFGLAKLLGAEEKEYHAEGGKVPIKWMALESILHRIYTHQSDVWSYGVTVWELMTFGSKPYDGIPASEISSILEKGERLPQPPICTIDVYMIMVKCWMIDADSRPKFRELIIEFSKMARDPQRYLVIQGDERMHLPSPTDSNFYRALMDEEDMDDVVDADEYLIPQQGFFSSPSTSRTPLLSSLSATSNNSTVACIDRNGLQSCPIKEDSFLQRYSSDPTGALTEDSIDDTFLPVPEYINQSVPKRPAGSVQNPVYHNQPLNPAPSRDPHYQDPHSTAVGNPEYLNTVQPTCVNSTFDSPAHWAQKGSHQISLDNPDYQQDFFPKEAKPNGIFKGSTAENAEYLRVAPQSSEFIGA

Ki [nM] | Compound
2.37 | CCC(C)n1cc(C(=O)NC2CCC(O)CC2)c2cnc(Nc3ccnc(-c4cnn(S(=O)(=O)C5CC5)c4)n3)cc21 (stereo not shown) [Example 705]

What follows are compounds tested against T2, phosphor-EGFR in H1975(L585R/T790M) mutant EGFR expressing cells (Homo sapiens, UniProt P00533, L858R/T790M) (assay: H1975 pEGFR MSD cellular assay). Details: NCI-H1975 cells, serum starved, 1 hour compound incubation, pEGFR Tyr1068 MSD.
T2 construct: host or cells: NCI-H1975
T2 sequence (P00533 25-1210 T790M/L858R): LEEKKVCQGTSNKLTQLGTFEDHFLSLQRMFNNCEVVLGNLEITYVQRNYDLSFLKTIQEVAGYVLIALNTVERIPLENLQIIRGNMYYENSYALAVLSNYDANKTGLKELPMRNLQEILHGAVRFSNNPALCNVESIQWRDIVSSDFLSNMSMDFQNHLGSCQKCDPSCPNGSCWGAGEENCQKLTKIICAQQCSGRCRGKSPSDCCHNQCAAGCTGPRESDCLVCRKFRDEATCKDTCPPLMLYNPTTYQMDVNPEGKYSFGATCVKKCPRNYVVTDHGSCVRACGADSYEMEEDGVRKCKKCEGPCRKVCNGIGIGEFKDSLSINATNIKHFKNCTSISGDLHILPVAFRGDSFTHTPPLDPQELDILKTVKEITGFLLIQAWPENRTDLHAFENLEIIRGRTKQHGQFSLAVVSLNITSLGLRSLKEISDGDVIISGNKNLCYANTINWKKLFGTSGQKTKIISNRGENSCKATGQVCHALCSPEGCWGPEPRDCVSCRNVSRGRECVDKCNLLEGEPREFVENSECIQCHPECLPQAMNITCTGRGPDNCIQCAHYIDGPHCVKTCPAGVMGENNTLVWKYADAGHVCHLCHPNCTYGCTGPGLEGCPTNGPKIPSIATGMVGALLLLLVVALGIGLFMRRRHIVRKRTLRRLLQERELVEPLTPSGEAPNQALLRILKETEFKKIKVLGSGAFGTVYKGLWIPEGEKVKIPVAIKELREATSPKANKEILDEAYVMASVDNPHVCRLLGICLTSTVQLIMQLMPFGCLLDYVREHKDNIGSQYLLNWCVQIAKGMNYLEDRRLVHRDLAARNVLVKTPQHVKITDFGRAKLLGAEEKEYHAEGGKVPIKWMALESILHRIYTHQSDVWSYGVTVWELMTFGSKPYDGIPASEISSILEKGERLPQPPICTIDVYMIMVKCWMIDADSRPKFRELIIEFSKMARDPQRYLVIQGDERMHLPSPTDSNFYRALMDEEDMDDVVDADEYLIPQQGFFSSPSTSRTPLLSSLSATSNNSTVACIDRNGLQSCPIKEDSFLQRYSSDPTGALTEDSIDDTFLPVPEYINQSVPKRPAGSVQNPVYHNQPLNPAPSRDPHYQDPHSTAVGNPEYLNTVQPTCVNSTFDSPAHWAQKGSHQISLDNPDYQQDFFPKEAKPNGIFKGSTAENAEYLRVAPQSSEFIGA
Assay type: cell-based
Method: H1975 pEGFR MSD Cellular Assays Background:
These assays are intended for determining cellular. […] (Meso Scale Discovery Catalog# N31CB-1).
All cell culture reagents were purchased from Invitrogen/Gibco. Cells are cultured at 37° C. at 5% CO2 and split as recommended by ATCC.
Cell Plating and Serum Starvation:
After six hours, culture medium is aspirated and replaced with serum-free culture medium. Cells are then incubated with the serum-free medium overnight at 37° C. and 5% CO2.
The following day, test compounds are serially diluted in dimethyl sulfoxide (DMSO) and added to cells in serum free medium (final DMSO concentration 0.5%). Assay plates are then incubated for 1 hour at 37° C. and 5% CO2. Following 1 hour of compound incubation cells are then lysed and processed as per the MSD pEGFR assay kit protocol. Cell lysates are added to assay plates pre-coated with antibodies against phosphorylated EGFR. Phosphorylated EGFR in samples are allowed to bind to the capture antibodies overnight at 4° C. The detection antibody (anti-total EGFR, labeled with an electrochemiluminescent SULFO-TAG) is added to the bound lysate and incubated for 1 hour at room temperature. The MSD Read Buffer is added such that when a voltage is applied to the plate electrodes, the labels bound to the electrode surface emit light. The MSD Sector Instrument measures the intensity of the light, and quantitatively measures the amount of phosphorylated-EGFR in the sample. Percent inhibition of EGFR phosphorylation by varying concentrations of test compounds is calculated relative to untreated controls. EC50 values are calculated using the 4 parameter logistic nonlinear regression dose-response model.

EC50 [nM] | Compound
1160 | CC(C)n1c(C2CCCO2)nc2cnc(Nc3ccnc(-c4cnn(S(=O)(=O)C5CC5)c4)n3)cc21 (racemic) [Example 565, (±)-[2-(1-Cyclopropanesulfonyl-1H-pyrazol-4-yl)-pyrimidin-4-yl]-[1-isopropyl-2-(tetrahydro-furan-2-yl)-1H-imidazo[4,5-c]pyridin-6-yl]amine]
181 | CC(C)n1cc(C(N)=O)c2cnc(Nc3ccnc(-c4cnn(S(=O)(=O)C5CC5)c4)n3)cc21 [Example 51, 6-((2-(1-(Cyclopropylsulfonyl)-1H-pyrazol-4-yl)pyrimidin-4-yl)amino)-1-isopropyl-1H-pyrrolo[3,2-c]pyridine-3-carboxamide]
3570 | COc1ccc(-c2nccc(Nc3cc4c(cn3)ncn4C(C)C)n2)cn1 [Example 54, 1-Isopropyl-N-(2-(6-methoxypyridin-3-yl)pyrimidin-4-yl)-1H-imidazo[4,5-c]pyridin-6-amine]
4710 | COCC(C)(C)n1c(C)nc2cnc(Nc3ccnc(N4CCC(OC)CC4)n3)cc21 [Example 164, [1-(2-Methoxy-1,1-dimethylethyl)-2-methyl-1H-imidazo[4,5-c]pyridin-6-yl]-[2-(4-methoxypiperidin-1-yl)pyrimidin-4-yl]amine]
1050 | CC(C)n1cc(C2CNC(=O)C2)c2cnc(Nc3ccnc(-c4cnn(S(=O)(=O)C5CC5)c4)n3)cc21 (stereo not shown) [Example 256, 4-(6-(2-(1-(Cyclopropylsulfonyl)-1H-pyrazol-4-yl)pyrimidin-4-ylamino)-1-isopropyl-1H-pyrrolo[3,2-c]pyridin-3-yl)pyrrolidin-2-one]
5750 | COC1(CN)CCN(c2nccc(Nc3cc4c(cn3)nc(C)n4C(C)C)n2)CC1 [Example 271, [2-(4-Aminomethyl-4-methoxypiperidin-1-yl)pyrimidin-4-yl](1-isopropyl-2-methyl-1H-imidazo[4,5-c]pyridin-6-yl)amine]
414 | CC(C)n1c(OCCO)nc2cnc(Nc3ccnc(-c4cnn(S(=O)(=O)C5CC5)c4)n3)cc21 [Example 282, 2-{6-[2-(1-Cyclopropanesulfonyl-1H-pyrazol-4-yl)pyrimidin-4-ylamino]-1-isopropyl-1H-imidazo[4,5-c]pyridin-2-yloxy}ethanol]
177 | CC(C)n1cc(C(=O)NC2COC2)c2cnc(Nc3ccnc(-c4cnn(S(=O)(=O)N(C)C)c4)n3)cc21 [Example 378, 6-((2-(1-(N,N-dimethylsulfamoyl)-1H-pyrazol-4-yl)pyrimidin-4-yl)amino)-1-isopropyl-N-(oxetan-3-yl)-1H-pyrrolo[3,2-c]pyridine-3-carboxamide]
1340 | Cc1nc2cnc(Nc3ccnc(-c4cnn(CC5CC5)c4)n3)cc2n1C(C)C [Example 395, N-(2-(1-(cyclopropylmethyl)-1H-pyrazol-4-yl)pyrimidin-4-yl)-1-isopropyl-2-methyl-1H-imidazo[4,5-c]pyridin-6-amine]
831 | COC1(CO)CCN(c2nccc(Nc3cc4c(cn3)c(-c3cnn(C(C)(C)C(N)=O)c3)cn4C(C)C)n2)CC1 [Example 445, 2-(4-(6-(2-(4-(hydroxymethyl)-4-methoxypiperidin-1-yl)pyrimidin-4-ylamino)-1-isopropyl-1H-pyrrolo[3,2-c]pyridin-3-yl)-1H-pyrazol-1-yl)-2-methylpropanamide]
1810 | O=S(=O)(C1CC1)n1cc(-c2nccc(Nc3cc4c(cn3)nc(CO)n4-c3ccccc3)n2)cn1 [Example 475, (6-(2-(1-(cyclopropylsulfonyl)-1H-pyrazol-4-yl)pyrimidin-4-ylamino)-l-phenyl-1H-imidazo[4,5-c]pyridin-2-yl)methanol]
838 | CC1(C)COCc2nc3cnc(Nc4ccnc(-c5cnn(S(=O)(=O)C6CC6)c5)n4)cc3n21 [Example 538, [2-(1-Cyclopropanesulfonyl-1H-pyrazol-4-yl)-pyrimidin-4-yl]-(4,4-dimethyl-3,4-dihydro-1H-2-oxa-4a,7,9-triazafluoren-6-yl)amine]
